One assay has as its target FASN enzyme (Homo sapiens, UniProt P49327). The experiment in a line: Enzymatic Assay for FASN Inhibitors. The assay is classed as biochemical. The essentials:
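40 nM FASN preincubated with compound 60 min at 25° C in HEPES pH 7.3 buffer with 0.04% Triton X-100. Then 20 μM acetyl-CoA, 60 μM malonyl-CoA and 100 μM NADPH added for 90 min, quenched with CPM thiol probe; fluorescence 360/530 nm, IC50 by four-parameter fit.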

Another assay has as its system PC3 cells. The experiment in a line: Cell Proliferation Assays for FASN Inhibitors (PC3 cells, MTT). It counts as cell-based. To be noted: Homo sapiens, PC-3, 96 h, read-out: IC50 (uM) < 0.5, 10% lipid reduced serum, 4 days, Table 3-1. As for the experimental part: The effects of the FASN inhibitors on cultured cancer cell proliferation were studies with cell proliferation assays. PC3 cells were maintained at standard culture media (F12K media supplemented with 10% fetal bovine serum, 1×MEM nonessential amino acid and 1× penicillin/streptomycin). 2000-3000 cells/100 μL/well was seeded in a 96-well clear culture plate. The cells were incubated overnight in 5% CO2 at 37° C. for attachment. Cell media were removed and replaced with F12K media containing 10% lipid reduced serum and compound. The final DMSO concentration is 0.1%. The cells were maintained in 5% CO2 at 37° C. for 4 days. The viability of cells was determined by MTT assays. The IC50 of a given compound was calculated by fitting the dose response curve with a four parameter logistic equation.

Where two headings read alike, the source gives them in different places.

Sequence of FASN enzyme (P49327 whole entry): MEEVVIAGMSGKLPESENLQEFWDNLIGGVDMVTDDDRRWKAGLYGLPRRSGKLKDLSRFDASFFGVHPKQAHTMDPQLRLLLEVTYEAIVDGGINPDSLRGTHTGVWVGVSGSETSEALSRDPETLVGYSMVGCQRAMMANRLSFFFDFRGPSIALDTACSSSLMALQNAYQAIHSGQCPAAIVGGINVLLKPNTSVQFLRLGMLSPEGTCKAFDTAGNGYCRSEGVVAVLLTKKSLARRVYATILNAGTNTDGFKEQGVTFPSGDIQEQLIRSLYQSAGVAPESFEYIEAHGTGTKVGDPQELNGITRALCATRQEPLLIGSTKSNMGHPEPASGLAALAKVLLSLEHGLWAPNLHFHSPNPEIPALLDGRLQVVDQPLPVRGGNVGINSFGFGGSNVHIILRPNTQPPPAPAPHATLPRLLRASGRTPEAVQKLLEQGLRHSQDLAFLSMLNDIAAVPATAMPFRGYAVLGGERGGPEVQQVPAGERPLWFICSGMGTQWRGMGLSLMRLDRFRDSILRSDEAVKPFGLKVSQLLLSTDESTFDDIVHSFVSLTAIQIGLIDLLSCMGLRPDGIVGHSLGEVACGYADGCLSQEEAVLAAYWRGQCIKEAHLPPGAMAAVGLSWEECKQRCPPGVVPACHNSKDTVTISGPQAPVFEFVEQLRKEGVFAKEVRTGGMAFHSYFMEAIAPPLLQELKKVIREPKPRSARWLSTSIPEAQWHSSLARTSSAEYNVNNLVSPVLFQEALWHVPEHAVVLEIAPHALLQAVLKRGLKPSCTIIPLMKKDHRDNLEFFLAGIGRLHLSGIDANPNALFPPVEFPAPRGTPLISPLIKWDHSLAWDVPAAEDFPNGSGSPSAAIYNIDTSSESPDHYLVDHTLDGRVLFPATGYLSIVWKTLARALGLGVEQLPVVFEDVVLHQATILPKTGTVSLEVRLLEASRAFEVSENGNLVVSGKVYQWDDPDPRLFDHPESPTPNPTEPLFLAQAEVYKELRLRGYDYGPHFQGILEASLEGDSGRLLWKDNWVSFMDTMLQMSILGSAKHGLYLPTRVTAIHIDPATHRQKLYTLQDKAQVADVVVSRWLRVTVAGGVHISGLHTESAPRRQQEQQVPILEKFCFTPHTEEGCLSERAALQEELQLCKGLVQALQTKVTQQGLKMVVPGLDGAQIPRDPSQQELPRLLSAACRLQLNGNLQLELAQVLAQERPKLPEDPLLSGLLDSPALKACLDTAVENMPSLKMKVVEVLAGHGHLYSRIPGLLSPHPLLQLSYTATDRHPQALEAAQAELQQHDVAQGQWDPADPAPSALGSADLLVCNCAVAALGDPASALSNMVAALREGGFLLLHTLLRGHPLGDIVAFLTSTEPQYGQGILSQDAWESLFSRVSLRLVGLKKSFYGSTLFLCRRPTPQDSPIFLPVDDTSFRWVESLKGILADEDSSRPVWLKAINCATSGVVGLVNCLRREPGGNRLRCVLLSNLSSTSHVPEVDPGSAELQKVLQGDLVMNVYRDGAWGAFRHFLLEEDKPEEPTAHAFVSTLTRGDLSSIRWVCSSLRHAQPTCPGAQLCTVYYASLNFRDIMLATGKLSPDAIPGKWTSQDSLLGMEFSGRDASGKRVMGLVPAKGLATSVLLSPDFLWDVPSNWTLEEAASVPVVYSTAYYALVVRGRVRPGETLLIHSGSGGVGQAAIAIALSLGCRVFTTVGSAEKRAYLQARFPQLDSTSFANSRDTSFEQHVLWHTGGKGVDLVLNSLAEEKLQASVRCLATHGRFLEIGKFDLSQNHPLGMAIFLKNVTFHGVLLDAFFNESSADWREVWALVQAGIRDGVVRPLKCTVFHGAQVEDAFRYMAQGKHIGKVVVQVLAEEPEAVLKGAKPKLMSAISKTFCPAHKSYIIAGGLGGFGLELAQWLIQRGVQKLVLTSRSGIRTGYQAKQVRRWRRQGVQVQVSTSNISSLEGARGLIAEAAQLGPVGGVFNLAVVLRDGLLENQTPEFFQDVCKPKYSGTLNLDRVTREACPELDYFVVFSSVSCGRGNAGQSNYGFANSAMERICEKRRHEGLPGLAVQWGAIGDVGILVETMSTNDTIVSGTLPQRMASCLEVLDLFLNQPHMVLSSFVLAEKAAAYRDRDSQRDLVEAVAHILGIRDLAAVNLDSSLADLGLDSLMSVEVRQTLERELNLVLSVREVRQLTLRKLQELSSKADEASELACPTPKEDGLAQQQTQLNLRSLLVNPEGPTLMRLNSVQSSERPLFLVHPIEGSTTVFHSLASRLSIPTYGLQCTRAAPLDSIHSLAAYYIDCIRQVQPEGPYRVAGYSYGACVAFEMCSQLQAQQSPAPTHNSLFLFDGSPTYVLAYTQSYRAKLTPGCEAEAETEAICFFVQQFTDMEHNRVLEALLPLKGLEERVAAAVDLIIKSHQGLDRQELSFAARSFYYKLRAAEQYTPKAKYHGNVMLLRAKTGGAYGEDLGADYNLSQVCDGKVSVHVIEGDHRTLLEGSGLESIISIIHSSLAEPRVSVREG

For orientation: IC50 means the concentration that inhibits the measured activity by half. Consider `Cn1c(-c2ccc(C(=O)N3CCN(C(=O)C4(O)CC4)CC3)cc2)cc2ccccc21` [1-[(4-{[4-(1-methyl-1H-indol-2-yl)phenyl]carbonyl}piperazin-1-yl)carbonyl]cyclopropan-1-ol], for which the half-maximal inhibitory concentration (IC50) against FASN enzyme was under 500 nM; with PC3 cells, under 0.5 µM.

Regarding `Cn1ccc2cc(-c3ccc(C(=O)N4CCN(C(=O)C5(O)CC5)CC4)cc3Cl)ccc21` [1-[(4-{[3-chloro-4-(1-methyl-1H-indol-5-yl)phenyl]carbonyl}piperazin-1-yl)carbonyl]cyclopropan-1-ol], the IC50 at FASN enzyme was under 500 nM; in the assay on PC3 cells, under 0.5 µM.

For `N#Cc1cc2cc(-c3ccc(C(=O)N4CCN(C(=O)C5(O)CC5)CC4)cc3)ccc2[nH]1` [5-[4-({4-[(1-hydroxycyclopropyl)carbonyl]piperazin-1-yl}carbonyl)phenyl]-1H-indole-2-carbonitrile], the values for the IC50 against FASN enzyme and in the assay on PC3 cells were under 500 nM and under 0.5 µM, respectively.

In the case of `O=C(c1ccc(-c2nc3ccccc3[nH]2)cc1)N1CCN(C(=O)C2(O)CC2)CC1`, the IC50 is 500 to 5000 nM against FASN enzyme (FASN enzymatic assay, Table 2-2) and under 0.5 µM in the assay on PC3 cells.

Consider `COc1ccc2nc(-c3ccc(C(=O)N4CCN(C(=O)C5(O)CC5)CC4)cc3)cc(C)c2c1` [1-[(4-{[4-(6-methoxy-4-methylquinolin-2-yl)phenyl]carbonyl}piperazin-1-yl)carbonyl]cyclopropan-1-ol], for which the IC50 on FASN enzyme was under 500 nM; in the assay with PC3 cells, under 0.5 µM.

For `Cn1ncc2ccc(-c3ccc(C(=O)N4CCN(C(=O)C5(O)CC5)CC4)cc3)cc21` [1-[(4-{[4-(1-methyl-1H-indazol-6-yl)phenyl]carbonyl}piperazin-1-yl)carbonyl]cyclopropan-1-ol], the IC50 on FASN enzyme was under 500 nM; in the assay on PC3 cells, under 0.5 µM.

For `O=C(c1ccc(-c2ccc3[nH]cnc3c2)cc1)N1CCN(C(=O)C2(O)CC2)CC1` [1-[(4-{[4-(1H-1,3-benzodiazol-5-yl)phenyl]carbonyl}piperazin-1-yl)carbonyl]cyclopropan-1-ol], the IC50 was under 500 nM against FASN enzyme and under 0.5 µM in the assay with PC3 cells.

`O=C(c1ccc(-c2ccc(Cl)cc2F)cc1)N1CCN(C(=O)C2(O)CC2)CC1` [1-[(4-{[4-(4-chloro-2-fluorophenyl)phenyl]carbonyl}piperazin-1-yl)carbonyl]cyclopropan-1-ol]: the 50% inhibitory concentration (IC50) against FASN enzyme was under 500 nM; in the assay on PC3 cells, under 0.5 µM.

In the case of `O=C(c1ccc(-c2ccc3scnc3c2)c(Cl)c1)N1CCN(C(=O)C2(O)CC2)CC1` [1-[(4-{[4-(1,3-benzothiazol-5-yl)-3-chlorophenyl]carbonyl}piperazin-1-yl)carbonyl]cyclopropan-1-ol], the 50% inhibitory concentration (IC50) was under 500 nM against FASN enzyme and under 0.5 µM with PC3 cells.

With `O=C(c1ccc(-c2ccc3ocnc3c2)cc1)N1CCN(C(=O)C2(O)CC2)CC1` [1-[(4-{[4-(1,3-benzoxazol-5-yl)phenyl]carbonyl}piperazin-1-yl)carbonyl]cyclopropan-1-ol], the IC50 was under 500 nM on FASN enzyme and under 0.5 µM in the assay with PC3 cells.

As for `CC(C)n1cc(C#N)c2cc(-c3ccc(C(=O)N4CCN(C(=O)C5(O)CC5)CC4)cc3)ccc21`, the half-inhibitory concentration (IC50) is under 500 nM against FASN enzyme and under 0.5 µM with PC3 cells.

For `Cn1ccc2cc(-c3ccc(C(=O)N4CCN(C(=O)C5(O)CC5)CC4)c(F)c3)ccc21` [1-[(4-{[2-fluoro-4-(1-methyl-1H-indol-5-yl)phenyl]carbonyl}piperazin-1-yl)carbonyl]cyclopropan-1-ol], the half-maximal inhibitory concentration (IC50) is under 500 nM against FASN enzyme and under 0.5 µM in the assay with PC3 cells.

With `O=C(c1ccc(-c2cnc3ccccc3c2)c(Cl)c1)N1CCN(C(=O)C2(O)CC2)CC1` [1-[(4-{[3-chloro-4-(quinolin-3-yl)phenyl]carbonyl}piperazin-1-yl)carbonyl]cyclopropan-1-ol], the figures for the IC50 at FASN enzyme and in the assay on PC3 cells were under 500 nM and under 0.5 µM, respectively.

Consider `O=C(c1ccc(-c2cn3ccccc3n2)cc1)N1CCN(C(=O)C2(O)CC2)CC1`, for which the IC50 was under 500 nM on FASN enzyme and under 0.5 µM in the assay on PC3 cells.

Take `O=C(c1ccc(-c2cc(F)c3[nH]ccc3c2)cc1F)N1CCN(C(=O)C2(O)CC2)CC1` [1-[(4-{[2-fluoro-4-(7-fluoro-1H-indol-5-yl)phenyl]carbonyl}piperazin-1-yl)carbonyl]cyclopropan-1-ol]: the concentration for half-maximal inhibition (IC50) on FASN enzyme was under 500 nM; with PC3 cells, under 0.5 µM.

Consider `Cc1cc(C(=O)N2CCN(C(=O)C3(O)CC3)CC2)ccc1-c1cnc2ccccc2c1` [1-[(4-{[3-methyl-4-(quinolin-3-yl)phenyl]carbonyl}piperazin-1-yl)carbonyl]cyclopropan-1-ol], for which the IC50 on FASN enzyme was under 500 nM; in the assay on PC3 cells, under 0.5 µM.

For `Cn1cc2cc(-c3ccc(C(=O)N4CCN(C(=O)C5(O)CC5)CC4)cc3)ccc2n1` [1-[(4-{[4-(2-methyl-2H-indazol-5-yl)phenyl]carbonyl}piperazin-1-yl)carbonyl]cyclopropan-1-ol], the half-inhibitory concentration (IC50) against FASN enzyme was under 500 nM; in the assay on PC3 cells it was under 0.5 µM.

For `COc1ccc2nc(-c3ccc(C(=O)N4CCN(C(=O)C5(O)CC5)CC4)c(F)c3)ccc2c1` [1-[(4-{[2-fluoro-4-(6-methoxyquinolin-2-yl)phenyl]carbonyl}piperazin-1-yl)carbonyl]cyclopropan-1-ol], the IC50 was under 500 nM at FASN enzyme and under 0.5 µM with PC3 cells.

With `O=C(c1ccc(-c2ccc3[nH]ccc3c2)cc1)N1CCN(C(=O)C2(O)CC2)CC1` [1-[(4-{[4-(1H-indol-5-yl)phenyl]carbonyl}piperazin-1-yl)carbonyl]cyclopropan-1-ol], the half-inhibitory concentration (IC50) against FASN enzyme is under 500 nM; with PC3 cells, under 0.5 µM.

`O=C(c1ccc(-c2n[nH]c3ccccc23)cc1)N1CCN(C(=O)C2(O)CC2)CC1` [1-[(4-{[4-(1H-indazol-3-yl)phenyl]carbonyl}piperazin-1-yl)carbonyl]cyclopropan-1-ol]: the half-maximal inhibitory concentration (IC50) on FASN enzyme was under 500 nM; in the assay with PC3 cells it was under 0.5 µM.

In the case of `COc1ccc2cc(-c3ccc(C(=O)N4CCN(C(=O)C5(O)CC5)CC4)cc3)ccc2n1` [1-[(4-{[4-(2-methoxyquinolin-6-yl)phenyl]carbonyl}piperazin-1-yl)carbonyl]cyclopropan-1-ol], the results for the IC50 at FASN enzyme and with PC3 cells were under 500 nM and under 0.5 µM, respectively.

`O=C(c1ccc(-c2cnc3ccccc3c2)c(F)c1)N1CCN(C(=O)C2(O)CC2)CC1` [1-[(4-{[3-fluoro-4-(quinolin-3-yl)phenyl]carbonyl}piperazin-1-yl)carbonyl]cyclopropan-1-ol]: the IC50 was under 500 nM on FASN enzyme and under 0.5 µM in the assay with PC3 cells.

With `O=C(c1ccc(-c2ccc3occc3c2)cc1)N1CCN(C(=O)C2(O)CC2)CC1` [1-[(4-{[4-(1-benzofuran-5-yl)phenyl]carbonyl}piperazin-1-yl)carbonyl]cyclopropan-1-ol], the concentration for half-maximal inhibition (IC50) on FASN enzyme is under 500 nM; with PC3 cells, under 0.5 µM.

In the case of `Cc1nn(C)c2ccc(-c3ccc(C(=O)N4CCN(C(=O)C5(O)CC5)CC4)cc3)cc12` [1-[(4-{[4-(1,3-dimethyl-1H-indazol-5-yl)phenyl]carbonyl}piperazin-1-yl)carbonyl]cyclopropan-1-ol], the figures for the 50% inhibitory concentration (IC50) at FASN enzyme and in the assay on PC3 cells were under 500 nM and under 0.5 µM, respectively.

With `COc1c(Cl)cccc1-c1ccc(C(=O)N2CCN(C(=O)C3(O)CC3)CC2)cc1` [1-[(4-{[4-(3-chloro-2-methoxyphenyl)phenyl]carbonyl}piperazin-1-yl)carbonyl]cyclopropan-1-ol], the IC50 is under 500 nM at FASN enzyme and under 0.5 µM in the assay with PC3 cells.

Turning to `O=C(c1ccc(-c2cn3ccccc3n2)cc1Cl)N1CCN(C(=O)C2(O)CC2)CC1` [1-({4-[(2-chloro-4-{imidazo[1,2-a]pyridin-2-yl}phenyl)carbonyl]piperazin-1-yl}carbonyl)cyclopropan-1-ol], the IC50 against FASN enzyme is under 500 nM; with PC3 cells, under 0.5 µM.

For the molecule `O=C(c1ccc(-c2ccc3n[nH]nc3c2)cc1)N1CCN(C(=O)C2(O)CC2)CC1` [1-[(4-{[4-(2H-1,2,3-benzotriazol-5-yl)phenyl]carbonyl}piperazin-1-yl)carbonyl]cyclopropan-1-ol], the half-inhibitory concentration (IC50) is under 500 nM at FASN enzyme and under 0.5 µM in the assay on PC3 cells.

In the case of `O=C(c1ccc(-c2ccc3c(ccn3C(F)(F)F)c2)c(Cl)c1)N1CCN(C(=O)C2(O)CC2)CC1` [1-{[4-({3-chloro-4-[1-(trifluoromethyl)-1H-indol-5-yl]phenyl}carbonyl)piperazin-1-yl]carbonyl}cyclopropan-1-ol], the concentration for half-maximal inhibition (IC50) on FASN enzyme is under 500 nM; with PC3 cells, under 0.5 µM.

Regarding `N#Cc1c[nH]c2ccc(-c3ccc(C(=O)N4CCN(C(=O)C5(O)CC5)CC4)c(Cl)c3)cc12`, the values for the IC50 against FASN enzyme and with PC3 cells were under 500 nM and under 0.5 µM, respectively.

For the molecule `COc1ccc(OC(F)(F)F)cc1-c1ccc(C(=O)N2CCN(C(=O)C3(O)CC3)CC2)cc1` [1-{[4-({4-[2-methoxy-5-(trifluoromethoxy)phenyl]phenyl}carbonyl)piperazin-1-yl]carbonyl}cyclopropan-1-ol], the half-inhibitory concentration (IC50) with PC3 cells was under 0.5 µM.

For `O=C(c1ccc(-c2ccc3[nH]c(=O)ccc3c2)cc1)N1CCN(C(=O)C2(O)CC2)CC1`, the IC50 in the assay on PC3 cells was under 0.5 µM.

Molecule `C[C@H]1CN(C(=O)c2ccc(-c3ccc4c(c3)ncn4C)cc2)CCN1C(=O)C1(N)CC1` [1-[(2S)-2-methyl-4-[4-(1-methyl-1H-1,3-benzodiazol-5-yl)benzoyl]piperazine-1-carbonyl]cyclopropan-1-amine] registered a 50% inhibitory concentration (IC50) at FASN enzyme of under 500 nM.

For the molecule `O=C(c1ccc(-c2cccc(NS(=O)(=O)CC3CCC3)c2)cc1)N1CCN(C(=O)C2(O)CC2)CC1` [1-cyclobutyl-N-(3-{4-[4-(1-hydroxycyclopropanecarbonyl)piperazine-1-carbonyl]phenyl}phenyl)methanesulfonamide], the concentration for half-maximal inhibition (IC50) against FASN enzyme was under 500 nM.

(Values after US10457655B2, “Compounds and compositions for inhibition of FASN” (FORMA Therapeutics, Inc., priority 2013, dated 2019).)
